Patent US8673929B2, “4,6-di- and 2,4,6-trisubstituted quinazoline derivatives and pharmaceutical compositions useful for treating viral infections” (priority 2006, dated 2014)

Key:
HCV replicon = assay: Anti-HCV replicon assay, EC50 (luciferase readout); assay type: cell-based; conditions: Hepatitis C virus, 72 h; Huh-7 HCV replicon cells, 3 days incubation, luciferase luminescence
Experimental: (§1) The anti HCV activity of the quinazoline derivatives of this invention was tested in a human hepatoma Huh-7 cell line harbouring a HCV replicon. The assay comprised the following steps:
(§2) Step 1: compound preparation and serial dilution • 1. for water soluble quinazoline derivatives, a volume of 500 μL of solution in cell media (DMEM, 10% FBS, P/S, L-Glutamine) was prepared with a concentration being twice the concentration of the starting final serial dilution concentration. A volume of 150 μL of the solution was added to the pre-specified wells in column 1 of a 96-well cell culture plate (PerkinElmer, white plate, cat. #6005181, for EC50 assay; black plate, cat. #6005182 for CC50 assay). The rest of the plate, columns 2-12, was filled with 100 μL of cell media. The plate was then placed on a Precision 2000 Workstation to start the serial dilution. Compounds were diluted three times each step from column 1 to column 10. Column 11 was used as a blank control (no compound added). • 2. for quinazoline derivatives requiring DMSO to dissolve, serial dilution is performed in 50% DMSO in a 384-well plate. A solution containing a compound at 100-fold concentration of the starting final serial dilution concentration was prepared in 50% DMSO and added to the pre-specified wells in column 1 of a polypropylene 384-well plate. The plate was then placed on a Precision 2000 Workstation to start the serial dilution. After the serial dilution, a volume of 2 μL of the solution was transferred from the 384-well plate to a 96-well cell culture plate containing 100 μL of cell media on a Biomek FX Workstation. The DMSO concentration in the final assay condition was 0.5% after cells are added to the plate and the total volume in each well is brought to 200 μL.
(§3) Step 2: to each well of the serial dilution plate prepared above, 100 μL of cell media containing 6000 suspended Huh-7 HCV replicon cells was added with a Multidrop workstation. The plates were incubated for 3 days at 37° C. with 5% CO2.
(§4) Step 3: detection: • a) for the EC50 assay, the media in a 96-well cell culture plate was aspirated with a Biotek EL405 plate-washer. A volume of 200 μL of a solution containing a 1:1 mixture of cell-lysis buffer (Promega, Luciferase Cell Culture Lysis 5× Reagent, cat. #E1531) and luciferase substrate solution (Promega, Luciferase Assay, cat.# E4550) was added to each well of the plate with Multidrop. The plate was incubated for 30 minutes at room temperature before the luminescence signal was measured with a TopCount plate-reader. • b) for the CC50 assay, a volume of 100 μL of pre-mixed CellTiter-Glo (Promega, cat.# G7572) solution is added directly to the cell culture in each well of the plate and the luminescence signal is measured with a TopCount plate-reader after 10 minutes of incubation at room temperature.
(§5) Results in the table below are expressed by the following data: • the 50% cytostatic concentration (CC50), i.e. the concentration that results in 50% inhibition of cell growth, and • the 50% effective concentration (EC50), i.e. the concentration that […].

[1] = CC50 assay in the anti-HCV replicon assay (CellTiter-Glo); assay type: cell-based, human; conditions: human, Huh-7 hepatoma cells harbouring an HCV replicon; Huh-7 HCV replicon cells, 3 days incubation, CellTiter-Glo luminescence
Experimental: as §1, §2, §3, §4, §5

SMILES | EC50 (HCV replicon) [nM] | CC50 at 3 days [1] [µM]
Nc1nc(O[C@@H]2CCOC2)c2cc(-c3ccc(C(=O)NCC(F)(F)F)cc3)ccc2n1 [Example 219, (R)-4-[2-Amino-4-(tetrahydro-furan-3-yloxy)-quinazolin-6-yl]-N-(2,2,2-trifluoro-ethyl)-benzamide] | < 300 | > 20
CC(C)Oc1nc(N)nc2ccc(-c3cccc(O)c3)cc12 [Example 184, 3-(2-Amino-4-isopropoxy-quinazolin-6-yl)-phenol] | 300 to 1000 | < 10
Nc1nc(OCCN2CCOCC2)c2cc(-c3ccoc3)ccc2n1 [Example 239, 6-Furan-3-yl-4-(2-morpholin-4-yl-ethoxy)-quinazolin-2-ylamine] | 1000 to 10000 | 10 to 20
CC(C)Oc1nc(N)nc2ccc(-c3ccc(C(=O)NC(C)(C)C)cc3)cc12 [Example 174, 4-(2-Amino-4-isopropoxy-quinazolin-6-yl)-N-tert-butyl-benzamide] | 300 to 1000 | 10 to 20
CCOc1nc(N)nc2ccc(-c3ccc(F)c(F)c3)cc12 [Example 46, 6-(3,4-Difluoro-phenyl)-4-ethoxy-quinazolin-2-ylamine] | 1000 to 10000 | > 20
CC(C)Oc1nc(N)nc2ccc(-c3ccc(Cl)cc3Cl)cc12 [Example 80, 6-(2,4-Dichloro-phenyl)-4-isopropoxy-quinazolin-2-ylamine] | 1000 to 10000 | > 20
CCOc1nc(N)nc2ccc(-c3cccc(C(=O)NC)c3)cc12 [Example 168, 3-(2-Amino-4-ethoxy-quinazolin-6-yl)-N-methyl-benzamide] | 1000 to 10000 | > 20
Nc1nc(OCC(F)(F)F)c2cc(-c3ccc(F)cc3)ccc2n1 [Example 26, 2-amino-6-(4-fluorophenyl)-4-(2,2,2-trifluoroethoxy)-quinazoline] | 1000 to 10000 | 10 to 20
COCCOc1nc(N)nc2ccc(-c3cn[nH]c3)cc12 [Example 64, 4-(2-Methoxy-ethoxy)-6-(2H-pyrazol-4-yl)-quinazolin-2-ylamine] | 1000 to 10000 | > 20
CCOc1ncnc2ccc(-c3ccc(F)cc3)cc12 [Example 34, 4-ethoxy-6-(4-fluorophenyl)-quinazoline] | 300 to 1000 | > 20
CC(C)Oc1nc(N)nc2ccc(-c3ccc(C(=O)NCCN(C)C)cc3)cc12 [Example 178, 4-(2-Amino-4-isopropoxy-quinazolin-6-yl)-N-(2-dimethylamino-ethyl)-benzamide] | < 300 | < 10
Nc1nc(OCCF)c2cc(-c3ccc(C(=O)N4CCSCC4)cc3)ccc2n1 [Example 205, {4-[2-Amino-4-(2-fluoro-ethoxy)-quinazolin-6-yl]-phenyl}-thiomorpholin-4-yl-methanone] | 1000 to 10000 | > 20
CCOc1nc(N)nc2ccc(-c3ccc(C(=O)Nc4ccc(F)cc4)cc3)cc12 [Example 161, 4-(2-Amino-4-ethoxy-quinazolin-6-yl)-N-(4-fluoro-phenyl)-benzamide] | 300 to 1000 | < 10
CC(=O)Nc1ccc(-c2ccc3nc(N)nc(OCCN4CCOCC4)c3c2)cc1 [Example 29, 2-amino-6-(4-acetamidophenyl)-4-[2-(4-morpholinyl)ethoxy]-quinazoline] | 300 to 1000 | > 20
CC(C)Oc1nc(N)nc2ccc(-c3ccn[nH]3)cc12 [Example 85, 4-Isopropoxy-6-(2H-pyrazol-3-yl)-quinazolin-2-ylamine] | 300 to 1000 | > 20
CCCCNC(=O)c1ccc(-c2ccc3nc(N)nc(OC(C)C)c3c2)cc1 [Example 173, 4-(2-Amino-4-isopropoxy-quinazolin-6-yl)-N-butyl-benzamide] | < 300 | < 10
CC(C)NC(=O)c1ccc(-c2ccc3nc(N)nc(OC(C)C)c3c2)cc1 [Example 176, 4-(2-Amino-4-isopropoxy-quinazolin-6-yl)-N-isopropyl-benzamide] | < 300 | 10 to 20

SMILES | EC50 (HCV replicon) [nM] | CC50 at 3 days [1] [µM]
CCOc1nc(N)nc2ccc(-c3ccc(C(=O)NCC(C)C)cc3)cc12 [Example 150, 4-(2-Amino-4-ethoxy-quinazolin-6-yl)-N-isobutyl-benzamide] | 1000 to 10000 | 10 to 20
Nc1nc(OCCN2CCOCC2)c2cc(-c3ccc(Cl)c(C(F)(F)F)c3)ccc2n1 [Example 234, 6-(4-Chloro-3-trifluoromethyl-phenyl)-4-(2-morpholin-4-yl-ethoxy)-quinazolin-2-ylamine] | 1000 to 10000 | 10 to 20
Nc1nc(OCC2CCC2)c2cc(-c3cccc(F)c3F)ccc2n1 [Example 104, 4-Cyclobutylmethoxy-6-(2,3-difluoro-phenyl)-quinazolin-2-ylamine] | 1000 to 10000 | > 20
Nc1nc(OCCN2CCOCC2)c2cc(-c3cccc(C(F)(F)F)c3)ccc2n1 [Example 242, 4-(2-Morpholin-4-yl-ethoxy)-6-(3-trifluoromethyl-phenyl)-quinazolin-2-ylamine] | 1000 to 10000 | 10 to 20
COCCOc1nc(N)nc2ccc(-c3cc4ccccc4s3)cc12 [Example 56, 6-Benzo[b]thiophen-2-yl-4-(2-methoxy-ethoxy)-quinazolin-2-ylamine] | 1000 to 10000 | > 20
CC(C)Oc1nc(N)nc2ccc(-c3ccc(O)cc3)cc12 [Example 100, 4-(2-Amino-4-isopropoxy-quinazolin-6-yl)-phenol] | < 300 | 10 to 20
CNC(=O)c1ccc(-c2ccc3nc(N)nc(OC(C)C)c3c2)cc1Cl [Example 182, 4-(2-Amino-4-isopropoxy-quinazolin-6-yl)-2-chloro-N-methyl-benzamide] | < 300 | > 20
CCOc1nc(N)nc2ccc(-c3ccc(C(=O)NC)cc3)cc12 [Example 43, 4-(2-Amino-4-ethoxy-quinazolin-6-yl)-N-methyl-benzamide] | < 300 | > 20
CCOc1nc(N)nc2ccc(-c3ccc(C(=O)N4CCSCC4)cc3)cc12 [Example 162, [4-(2-Amino-4-ethoxy-quinazolin-6-yl)-phenyl]-thiomorpholin-4-yl-methanone] | 1000 to 10000 | > 20
Nc1nc(OCC2CCC2)c2cc(-c3ccc(F)cc3Cl)ccc2n1 [Example 110, 4-Cyclobutylmethoxy-6-(2-chloro-4-fluoro-phenyl)-quinazolin-2-ylamine] | 1000 to 10000 | 10 to 20
CN(C)CCCOc1nc(N)nc2ccc(-c3cccc(C(F)(F)F)c3)cc12 [Example 233, 4-(3-Dimethylamino-propoxy)-6-(3-trifluoromethyl-phenyl)-quinazolin-2-ylamine] | 1000 to 10000 | > 20
Nc1nc(OCC2CCC2)c2cc(-c3ccsc3)ccc2n1 [Example 117, 4-Cyclobutylmethoxy-6-thiophen-3-yl-quinazolin-2-ylamine] | 1000 to 10000 | 10 to 20
CN(C)CCNC(=O)c1ccc(-c2ccc3nc(N)nc(O[C@H]4CCOC4)c3c2)cc1 [Example 216] | < 300 | > 20
CCOc1nc(N)nc2ccc(-c3cn[nH]c3)cc12 [Example 48, 4-Ethoxy-6-(2H-pyrazol-4-yl)-quinazolin-2-ylamine] | 300 to 1000 | > 20
COCCOc1nc(N)nc2ccc(-c3ccc(O)cc3)cc12 [Example 68, 4-[2-Amino-4-(2-methoxy-ethoxy)-quinazolin-6-yl]-phenol] | 300 to 1000 | 10 to 20
CCOc1nc(N)nc2ccc(-c3ccc(C(=O)NC4CCCC4)cc3)cc12 [Example 154, 4-(2-Amino-4-ethoxy-quinazolin-6-yl)-N-cyclopentyl-benzamide] | 300 to 1000 | 10 to 20
CCOc1nc(N)nc2ccc(-c3ccc(C(=O)N(C)C)cc3)cc12 [Example 125, 4-(2-Amino-4-ethoxy-quinazolin-6-yl)-N,N-dimethyl-benzamide] | 300 to 1000 | > 20
